Assay [1] has as its system KRas-mediated phosphorylation of ERK in AsPC-1 cells. The assay is described as follows: Inhibition of KRas-mediated phosphorylation of ERK (Cisbio HTRF pERK), AsPC-1 cells. Format: cell-based. The settings on record: for IC50: HTRF pERK. The essentials:
(§1)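 Compound treatment lasts 3 hrs on 6,000 seeded cells, testing 10 doses from a 10 uM top concentration in 3-fold decrements at 0.8% final DMSO. Trametinib at 0.2 uM defines the Min signal. Detection is HTRF on cold-lysed cell extracts.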
In general terms: In TR-FRET formats the signal depends on donor and acceptor labels being close together.

The test system of assay [2] is KRas-mediated phosphorylation of ERK in A549 cells. Briefly: Inhibition of KRas-mediated phosphorylation of ERK (Cisbio HTRF pERK), A549 cells. Format: cell-based. The settings on record: single point, 100 nM compound, 3 hrs; for inhibition at 0.1 µM: Homo sapiens, A549, 3 h. Summed up: (§2)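 HTRF readout of phospho-ERK in cell lysates after 3 hrs of compound exposure. Dosing: 10 uM top, 3-fold steps, 10 doses, final DMSO 0.8%. Min control: 0.2 uM Trametinib. Lysis ran 40 mins at 4° C, and antibody detection 2 hrs at room temperature.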

The target of another assay is T1, KRas^G12V (Homo sapiens, UniProt P01116, G12V).
T1 construct: Biotinylated KRas (corresponding to amino acids 1-169, produced at Accelegan Inc.); biotin (biotinylated); purchased Accelegan Inc
T1 sequence (P01116 1-169 isoform P01116-2 G12V): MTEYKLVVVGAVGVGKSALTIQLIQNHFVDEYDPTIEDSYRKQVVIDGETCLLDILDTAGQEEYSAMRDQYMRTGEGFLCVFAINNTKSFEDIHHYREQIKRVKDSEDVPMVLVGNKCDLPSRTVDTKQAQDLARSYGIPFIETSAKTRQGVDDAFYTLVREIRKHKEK
Briefly: KRas binding assay (TR-FRET tracer displacement), KRas G12V.

Assay [3] deals with KRas-mediated phosphorylation of ERK in H460 cells. Briefly: Inhibition of KRas-mediated phosphorylation of ERK (Cisbio HTRF pERK), H460 cells. Format: cell-based. The note with it: single point, 100 nM compound, 3 hrs; for inhibition at 0.1 µM: Homo sapiens, NCI-H460, 3 h. Summed up: as §1
Assay [4] has as its system KRas-mediated phosphorylation of ERK in H358 cells. Briefly: Inhibition of KRas-mediated phosphorylation of ERK (Cisbio HTRF pERK), H358 cells. The settings on record: single point, 100 nM compound, 3 hrs; for inhibition at 0.1 µM: Homo sapiens, NCI-H358, 3 h. In kind it is cell-based. Summed up: as §1
The target in the next assay is T2, KRas^G12R (Homo sapiens, UniProt P01116, G12R).
T2 construct: Biotinylated KRas (corresponding to amino acids 1-169, produced at Accelegan Inc.); biotin (biotinylated); purchased Accelegan Inc
T2 sequence (P01116 1-169 isoform P01116-2 G12R): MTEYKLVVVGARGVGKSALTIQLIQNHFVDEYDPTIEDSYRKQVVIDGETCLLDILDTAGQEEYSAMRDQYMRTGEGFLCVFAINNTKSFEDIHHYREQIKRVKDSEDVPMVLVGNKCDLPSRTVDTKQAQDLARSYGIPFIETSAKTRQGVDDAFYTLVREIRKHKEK
Briefly: KRas binding assay (TR-FRET tracer displacement), KRas G12R.

A further assay addresses T3, KRas^G12D (Homo sapiens, UniProt P01116, G12D).
T3 construct: Biotinylated KRas (corresponding to amino acids 1-169, produced at Accelegan Inc.); biotin (biotinylated); purchased Accelegan Inc
Briefly: KRas binding assay (TR-FRET tracer displacement), KRas G12D.

Assay [5] concerns KRas-mediated phosphorylation of ERK in H727 cells. The assay is described as follows: Inhibition of KRas-mediated phosphorylation of ERK (Cisbio HTRF pERK), H727 cells. The note with it: for IC50: HTRF pERK. In kind it is cell-based. The essentials:
as §1

The subject of assay [6] is KRas-mediated phosphorylation of ERK in HCT116 cells. The assay is described as follows: Inhibition of KRas-mediated phosphorylation of ERK (Cisbio HTRF pERK), HCT116 cells. Format: cell-based. The settings on record: single point, 100 nM compound, 3 hrs; for inhibition at 0.1 µM: Homo sapiens, HCT-116, 3 h. The essentials:
as §2

Where [7] appears, read: Homo sapiens, ASPC1, AsPC-1 cells.
The mark [8] stands for this setting: Homo sapiens, NCI-H727, H727 cells.

T3 sequence (P01116 1-169 isoform P01116-2 G12D): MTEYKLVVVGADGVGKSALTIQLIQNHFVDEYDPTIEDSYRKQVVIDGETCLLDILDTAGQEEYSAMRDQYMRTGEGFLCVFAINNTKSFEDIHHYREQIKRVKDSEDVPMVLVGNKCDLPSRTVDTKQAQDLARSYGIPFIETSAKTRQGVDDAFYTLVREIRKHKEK

As to `CCc1c(F)ccc2cc(O)cc(-c3ncc4c(N5CC6CCC(C5)C6C#N)nc(OC[C@@]56CCCN5C[C@H](F)C6)nc4c3F)c12` (single isomer, unassigned) [Example 560], the IC50 (as a rule, the concentration at which inhibition is half-maximal) in assay [1] (AsPC-1 cells) was 3100 nM; at KRas^G12V, 85 nM; on KRas^G12R it was 182 nM; at KRas^G12D it was 262 nM; in [5] (H727 cells), 724 nM. For the same compound, the “Inhibition (HTRF % at 100 nM) of KRas-mediated Phosphorylation of ERK, AsPC-1” value in [1] (single point, 100 nM compound, 3 hrs, AsPC-1 cells, 0.1 µM) was 5%. The “Inhibition (HTRF % at 100 nM) of KRas-mediated Phosphorylation of ERK, A549” value in assay [2] (0.1 µM) was found to be 15%. In addition, in [3] (0.1 µM), the “Inhibition (HTRF % at 100 nM) of KRas-mediated Phosphorylation of ERK, H460” value was found to be 10%. Besides, the “Inhibition (HTRF % at 100 nM) of KRas-mediated Phosphorylation of ERK, H358” value in assay [4] (0.1 µM) turned out to be 4%. In addition, the “Inhibition (HTRF % at 100 nM) of KRas-mediated Phosphorylation of ERK, H727” value in assay [5] (single point, 100 nM compound, 3 hrs, H727 cells, 0.1 µM) is given as 8%. Moreover, the “Inhibition (HTRF % at 100 nM) of KRas-mediated Phosphorylation of ERK, HCT116” value in [6] (0.1 µM) is on record as 12%.
As to `CCc1c(F)ccc2cc(O)cc(-c3ncc4c(N5CCC(C)(O)C(F)(F)CC5)nc(OC[C@@]56CCCN5C[C@H](F)C6)nc4c3F)c12` (stereo partly drawn) [Example 605, 1-(7-(8-ethyl-7-fluoro-3-hydroxynaphthalen-1-yl)-8-fluoro-2-(((2R,7aS)-2-fluorotetrahydro-1H-pyrrolizin-7a(5H)-yl)methoxy)pyrido[4,3-d]pyrimidin-4-yl)-5,5-difluoro-4-methylazepan-4-ol], the IC50 in assay [1] (setting [7]) was determined as 1560 nM; at KRas^G12V, 71 nM; at KRas^G12R, 47 nM; at KRas^G12D, 119 nM; in assay [5] (setting [8]), 946 nM. Further, the inhibition (as a rule, the relative decrease from the control value, in per cent) at 0.1 µM in assay [2] was 20%; in assay [3] it was 7%; in [4] it was 3%; in [6], -12%.
In the case of `CCc1c(F)ccc2cc(O)cc(-c3ncc4c(N5CCC[C@@](C)(O)C5)nc(OCC56CNCCC5C6)nc4c3F)c12` (stereo partly drawn) [Example 697, (3R)-1-(2-((3-azabicyclo[4.1.0]heptan-1-yl)methoxy)-7-(8-ethyl-7-fluoro-3-hydroxynaphthalen-1-yl)-8-fluoropyrido[4,3-d]pyrimidin-4-yl)-3-methylpiperidin-3-ol], the IC50 in [1] (setting [7]) was 1860 nM; at KRas^G12V, 6 nM; at KRas^G12R, 7 nM; at KRas^G12D, 4 nM; in assay [5] (setting [8]) it was 4750 nM. Moreover, the inhibition at 0.1 µM in assay [2] was -4%; in assay [3], 19%; in assay [4], 5%; in assay [6], 1%.
`CCc1c(F)ccc2cc(O)cc(-c3ncc4c(NCc5cc(C(=O)N(C)C)nn5C5CCS(=O)(=O)C5)nc(OC[C@@]56CCCN5C[C@H](F)C6)nc4c3F)c12` (single isomer, unassigned) [Example 694]: the IC50 in assay [1] (setting [7]) stood at 985 nM; on KRas^G12V, 17 nM; at KRas^G12R, 38 nM; on KRas^G12D it was 106 nM; in assay [5] (setting [8]) it was 605 nM. Also, the inhibition at 0.1 µM in [2] was -8%; in assay [3] it was -3%; in assay [4], 9%; in assay [6], -10%.
For the compound `CCc1c(F)ccc2cc(O)cc(-c3ncc4c(N5CCC[C@@](C)(O)C5)nc(OCC56CC5CCN(C)C6)nc4c3F)c12` (stereo partly drawn) [Example 701, (3R)-1-(7-(8-ethyl-7-fluoro-3-hydroxynaphthalen-1-yl)-8-fluoro-2-((3-methyl-3-azabicyclo[4.1.0]heptan-1-yl)methoxy)pyrido[4,3-d]pyrimidin-4-yl)-3-methylpiperidin-3-ol], the IC50 in [1] (setting [7]) was determined as 101 nM; on KRas^G12V it was 5 nM; on KRas^G12R, 9 nM; at KRas^G12D, 4 nM; in assay [5] (setting [8]) it was 476 nM. Further, the inhibition at 0.1 µM is 20% in assay [2], 15% in assay [3], 6% in assay [4] and 0% in assay [6].
On to `C#CC1(F)CCN(c2nc(OC[C@@]34CCCN3C[C@H](F)C4)nc3c(F)c(-c4cc(O)cc5ccc(F)c(CC)c45)ncc23)CC1` [Example 553, 5-ethyl-4-(4-(4-ethynyl-4-fluoropiperidin-1-yl)-8-fluoro-2-(((2R,7aS)-2-fluorotetrahydro-1H-pyrrolizin-7a(5H)-yl)methoxy)pyrido[4,3-d]pyrimidin-7-yl)-6-fluoronaphthalen-2-ol], for which the IC50 stood at 5160 nM in [1] (setting [7]); 77 nM on KRas^G12V; 79 nM at KRas^G12R; 864 nM on KRas^G12D; 1630 nM in assay [5] (setting [8]). In addition, the inhibition at 0.1 µM in assay [2] was 0%; in assay [3] it was 0%; in assay [4], 3%; in assay [6], 6%.
Consider `CCc1c(F)ccc2cc(O)cc(-c3ncc4c(N5CCCc6ncncc6C5)nc(OC[C@@]56CCCN5C[C@H](F)C6)nc4c3F)c12` [Example 582, 4-(4-(8,9-dihydro-5H-pyrimido[5,4-c]azepin-6(7H)-yl)-8-fluoro-2-(((2R,7aS)-2-fluorohexahydro-1H-pyrrolizin-7a-yl)methoxy)pyrido[4,3-d]pyrimidin-7-yl)-5-ethyl-6-fluoronaphthalen-2-ol], for which the IC50 was 130 nM in assay [1] (setting [7]); 11 nM at KRas^G12V; 10 nM at KRas^G12R; 3 nM at KRas^G12D; 328 nM in [5] (setting [8]). Moreover, the inhibition at 0.1 µM in assay [2] worked out at 32%; in assay [3], 3%; in assay [4] it was 15%; in [6], 13%.
Turning to `CCc1c(F)ccc2cc(O)cc(-c3ncc4c(N5C[C@@H]6C[C@]6(c6nc(C)no6)C5)nc(OC[C@@]56CCCN5C[C@H](F)C6)nc4c3F)c12` [Example 607, 5-ethyl-6-fluoro-4-(8-fluoro-2-(((2R,7aS)-2-fluorotetrahydro-1H-pyrrolizin-7a(5H)-yl)methoxy)-4-((1R,5R)-1-(3-methyl-1,2,4-oxadiazol-5-yl)-3-azabicyclo[3.1.0]hexan-3-yl)pyrido[4,3-d]pyrimidin-7-yl)naphthalen-2-ol], the IC50 came out at 1740 nM in [1] (setting [7]); 53 nM at KRas^G12V; 99 nM on KRas^G12R; 151 nM on KRas^G12D; 1770 nM in assay [5] (setting [8]). Also, the inhibition at 0.1 µM was found to be 34% in assay [2], 62% in [3], 9% in assay [4] and 24% in assay [6].
As for `CCc1c(F)ccc2cc(O)cc(-c3ncc4c(N5CCC[C@@](C)(O)C5)nc(OCC5(CN(C)C)CC56CCC6)nc4c3F)c12` (stereo partly drawn) [Example 705, (3R)-1-[2-[[2-[(dimethylamino)methyl]spiro[2.3]hexan-2-yl]methoxy]-7-(8-ethyl-7-fluoro-3-hydroxy-1-naphthyl)-8-fluoro-pyrido[4,3-d]pyrimidin-4-yl]-3-methyl-piperidin-3-ol], the inhibition at 0.1 µM in assay [1] (Homo sapiens, ASPC1, 3 h, single point, 100 nM compound, 3 hrs, AsPC-1 cells) was 6%; in assay [2], 29%; in assay [3], 0%; in assay [4], 34%; in assay [5] (Homo sapiens, NCI-H727, 3 h, single point, 100 nM compound, 3 hrs, H727 cells), 3%; in [6], -3%. Besides, the IC50 stood at 598 nM in assay [1] (setting [7]); 13 nM at KRas^G12V; 30 nM at KRas^G12R; 12 nM at KRas^G12D; 1220 nM in assay [5] (setting [8]).
For `CCc1c(F)ccc2cc(O)cc(-c3ncc4c(N5CCC[C@@](C)(O)C5)nc(OCC5(CN(C)C)CC5CC)nc4c3F)c12` (stereo partly drawn) [Example 703, (3R)-1-(2-((1-((dimethylamino)methyl)-2-ethylcyclopropyl)methoxy)-7-(8-ethyl-7-fluoro-3-hydroxynaphthalen-1-yl)-8-fluoropyrido[4,3-d]pyrimidin-4-yl)-3-methylpiperidin-3-ol], the IC50 in assay [1] (setting [7]) stood at 342 nM; on KRas^G12V it was 7 nM; on KRas^G12R, 14 nM; at KRas^G12D, 5 nM; in [5] (setting [8]), 982 nM. Further, the inhibition at 0.1 µM in [2] is 47%; in assay [3], 4%; in assay [4], -10%; in assay [6], 0%.

The values are drawn from US20260015350A1, “AZAQUINAZOLINE PAN-KRAS INHIBITORS” (Mirati Therapeutics, Inc., priority 2022, published 2026).
